# Experimental data reported in patent US20230122991A1, “GROWTH FACTOR FORMULATION FOR CONDITION ASSOCIATED WITH OTIC EVENT” (OTONOMY, INC., priority 2020, published 2023).
# Tests used:
# [1] = system: Spiral ganglion neurons (SGNs); assay: Survival of spiral ganglion neurons (Example C); assay type: cell-based, rat; details: 1 μM; compared to a vehicle-only control, 0.01% DMSO; FIG. 6C
# Experimental: Spiral ganglion neurons (SGNs) were harvested from P1-P3 rates, dissociated, and cultured in 96-well plates. The SGNs were treated with neurotrophins and/or antibodies at various concentrations. After about 24 hours, media was exchanged to serum-free media and the neurotrophins and/or antibodies were replenished. Cells were cultured for an additional 48-72 hours before being fixed using 4% paraformaldehyde (PFA) and stained using 4′,6-diamidino-2-phenylindole (DAPI). […] Surviving neurons were identified as cells with intact soma and at least one neurite.
# [2] = system: SGNs; assay: SGN complexity, dissociated SGNs (Example D); assay type: cell-based, rat; details: differences upon treatment, FIG. 7D
# From the text: SGNs were immunostained, imaged, and batch analyzed with PerkinElmer Harmony 4.6 software. Changes in the complexities of SGNs upon treatment with various agents were examined. […] All of the images in a single well were stitched together and analyzed. SGN somas are shown in the upper right panel and SGN neurites are shown in the lower left panel. As shown in the lower right panel, each neurite tree is assigned to a single cell for analysis. Depending on the stitching, occasionally neurites will not meet the criteria due to gaps that exceed a user-defined threshold.
Molecule,Survival of SGNs [1],"total neurite length, total number of extremities, segments, and nodes per cell [2]"
OCCN(CCO)c1ccc(C(c2ccc(Cl)cc2)c2ccc(N(CCO)CCO)cc2)cc1 [LM22b10],not improved,–
"neurotrophin-3 (protein, UniProt P20783 139-257, looked up, Neurotrophin-3) Neurotrophin-3: YAEHKSHRGEYSVCDSESLWVTDKSSAIDIRGHQVTVLGEIKTGNSPVKQYFYETRCKEARPVKNGCRGIDDKHWNSQCKTSQTYVRALTSENNKLVGWRWIRIDTSCVCALSRKIGRT",–,not statistically significant
